According to patent US20240158446A1, “CYCLIC COMPOUND HAVING SELECTIVE INHIBITORY ACTION ON KRAS OVER HRAS AND NRAS” (CHUGAI SEIYAKU KABUSHIKI KAISHA, priority 2021, published 2024):
Read-outs that look alike come from different tables or passages of the source. Where a SMILES comes first, the peptide text is derived from it. Bridges are numbered along the chain shown (N, C = ends). [ ]: non-standard residue; d: D form. The star is where a group is joined. hPhe(3-Cl-4-CF3) = N[C@@H](CCc1ccc(C(F)(F)F)c(Cl)c1)C(=O)O; NPrPhe(4-CF3) = CCCN[C@@H](Cc1ccc(C(F)(F)F)cc1)C(=O)O; NMeGly(cPent) = CN[C@H](C(=O)O)C1CCCC1; cisHyp = O=C(O)[C@@H]1C[C@H](O)CN1; NMeD = CN[C@@H](CC(=O)O)C(=O)O; NMeL = CN[C@@H](CC(C)C)C(=O)O; Morpholide = C1CN(*)CCO1; Ac5c = NC1(C(=O)O)CCCC1; Sar = CNCC(=O)O

Columns and labels:
[1] = molecular target: GDP-bound KRAS wild-type protein (Homo sapiens, UniProt P01116); assay: Binding to KRAS by surface plasmon resonance (SPR), Single Cycle Kinetics; details: GDP-bound KRAS wild-type protein, read-out: KRAS KD
[2] = molecular target: GDP-bound NRAS wild-type protein (Homo sapiens, UniProt P01111); assay: Binding to NRAS by surface plasmon resonance (SPR), Single Cycle Kinetics; details: for NRAS/KRAS (ratio of KD value for NRAS to KD value for KRAS) / ratio of the KD value with respect to GDP-bound NRAS wild-type protein to the KD value with respect to KRAS: SPR; for NRAS/KRAS (ratio of KD value for NRAS to KD value for KRAS): GDP-bound NRAS wild-type protein vs GDP-bound KRAS wild-type protein
[3] = molecular target: GDP-bound HRAS wild-type protein (Homo sapiens, UniProt P01112); assay: Binding to HRAS by surface plasmon resonance (SPR), Single Cycle Kinetics; details: for HRAS/KRAS (ratio of KD value for HRAS to KD value for KRAS) / ratio of the KD value with respect to GDP-bound HRAS wild-type protein to the KD value with respect to KRAS: SPR; for HRAS/KRAS (ratio of KD value for HRAS to KD value for KRAS): GDP-bound HRAS wild-type protein vs GDP-bound KRAS wild-type protein
[4] = test system: human lung cancer strain NCI-H441;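 note: cell proliferation inhibition after four days measured by CellTiter-Glo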
[5] = read-out: NCI-H441 cell proliferation inhibitory activity, 50% proliferation inhibitory concentration (IC50 value), NCI-H441, four days, CellTiter-Glo
[6] = SPR, Single Cycle Kinetics, 1:1 binding model
[7] = SPR Single Cycle Kinetics, 1:1 binding model

Sequence of GDP-bound KRAS wild-type protein (P01116 whole entry): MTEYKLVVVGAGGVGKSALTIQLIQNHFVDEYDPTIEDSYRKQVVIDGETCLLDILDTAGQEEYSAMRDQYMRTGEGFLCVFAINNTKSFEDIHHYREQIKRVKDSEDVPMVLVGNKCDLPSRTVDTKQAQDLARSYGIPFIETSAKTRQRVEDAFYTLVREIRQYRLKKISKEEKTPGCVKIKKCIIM
Sequence of GDP-bound NRAS wild-type protein (P01111 whole entry): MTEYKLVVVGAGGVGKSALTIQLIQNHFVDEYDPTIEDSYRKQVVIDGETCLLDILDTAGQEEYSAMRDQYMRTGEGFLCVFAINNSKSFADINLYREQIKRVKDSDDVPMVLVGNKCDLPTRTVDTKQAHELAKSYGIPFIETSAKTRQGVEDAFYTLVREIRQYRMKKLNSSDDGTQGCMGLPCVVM
Sequence of GDP-bound HRAS wild-type protein (P01112 whole entry): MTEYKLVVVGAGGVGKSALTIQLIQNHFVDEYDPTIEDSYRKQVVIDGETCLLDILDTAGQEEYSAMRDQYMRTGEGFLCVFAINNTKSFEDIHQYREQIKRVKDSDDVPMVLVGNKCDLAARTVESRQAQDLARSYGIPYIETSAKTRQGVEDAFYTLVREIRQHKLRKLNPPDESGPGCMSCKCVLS

Row | SMILES | Kd ([1]; SPR, Single Cycle Kinetics) | IC50 [4] | Kd [1, 6] | NRAS/KRAS (ratio of KD value for NRAS to KD value for KRAS) [2] | HRAS/KRAS (ratio of KD value for HRAS to KD value for KRAS) [3] | NRAS/KRAS (ratio of KD value for NRAS to KD value for KRAS) ([2]; KD ratio class) | HRAS/KRAS (ratio of KD value for HRAS to KD value for KRAS) ([3]; KD ratio class) | further results
1 | CCCO[C@@H]1C[C@H]2C(=O)NC3(CC(C)(C)C3)C(=O)N(C)[C@@H](C3CCCC3)C(=O)N(C)[C@H](C(=O)N(C)C)CC(=O)N(C)[C@H]3CCCCc4ccc(cc4)C[C@@H](C(=O)N(C)CC(=O)N[C@@H](CCc4ccc(C(F)(F)F)c(OC)c4)C(=O)N2C1)N1CC/C=C\C[C@@H](C1=O)N(C)C(=O)CN(C)C(=O)[C@H]([C@@H](C)CC)NC3=O [PP3077] | 0.04 nM |  |  | A (a compound having 10 or more and less than 20 is denoted as A) | B (a compound having 3 or more and less than 10 is denoted as B) |  |  | ratio of the KD value with respect to GDP-bound NRAS wild-type protein to the KD value with respect to KRAS [2]: A (a compound having 10 or more and less than 20 is denoted as A); ratio of the KD value with respect to GDP-bound HRAS wild-type protein to the KD value with respect to KRAS [3]: B (a compound having 3 or more and less than 10 is denoted as B); IC50 [4, 5]: 0.8 nM
2 | CCO[C@@H]1C[C@H]2C(=O)NC3(CCC3)C(=O)N(C)[C@@H](C3CCCC3)C(=O)N(C)[C@H](C(=O)N(C)C)CC(=O)N(C)[C@@H](Cc3ccc(Cl)c(Cl)c3)C(=O)N[C@@H]([C@@H](C)CC)C(=O)N(C)CC(=O)N(C)[C@H]3CCCCCN(C3=O)[C@@H](Cc3ccc(F)cc3)C(=O)N(C)CC(=O)N[C@@H](CCc3cc(F)c(C(F)(F)F)c(F)c3)C(=O)N2C1 [PP1158] | 0.18 nM | 57.5 nM |  | B (a compound having 3 or more and less than 10 is denoted as B) | B (a compound having 3 or more and less than 10 is denoted as B) |  |  | 
3 | CCO[C@@H]1C[C@H]2C(=O)NC3(CCC3)C(=O)N(C)[C@@H](C3CCCC3)C(=O)N(C)[C@H](C(=O)N(C)C)CC(=O)N(C)[C@@H](CC3CC3)C(=O)N[C@@H]([C@@H](C)CC)C(=O)N(C)CC(=O)N(C)[C@H]3C/C=C\CCN(C3=O)[C@@H](Cc3ccc(F)cc3)C(=O)N(C)CC(=O)N[C@@H](CCc3ccc4sccc4c3)C(=O)N2C1 [PP1426] |  | 475 nM | 1 nM |  |  | A (a compound having 10 or more and less than 20 is denoted as A) | B (a compound having 3 or more and less than 10 is denoted as B) | 
4 | CCO[C@@H]1C[C@H]2C(=O)NC3(CCC3)C(=O)N(C)[C@@H](C3CCCC3)C(=O)N(C)[C@H](C(=O)N3CCCCC3)CC(=O)N(C)[C@@H](CC)C(=O)N[C@@H]([C@@H](C)CC)C(=O)N(C)CC(=O)N(C)[C@H]3C/C=C\CCN(C3=O)[C@@H](Cc3ccc(C(F)(F)F)cc3)C(=O)N(C)CC(=O)N[C@@H](CCc3cc(F)c(C(F)(F)F)c(F)c3)C(=O)N2C1 [PP1289] |  | 34.7 nM | 0.17 nM |  |  | AA (a compound having 20 or more is denoted as AA) | A (a compound having 10 or more and less than 20 is denoted as A) | 
5 | CCC(CC)[C@H]1C(=O)N(C)[C@H](C(=O)N(C)C)CC(=O)N(C)[C@@H](COC)C(=O)N[C@@H]([C@@H](C)CC)C(=O)N2CCC[C@H]2C(=O)N(C)[C@H]2C/C=C\CCN(C2=O)[C@@H](Cc2ccc(C(F)(F)F)cc2)C(=O)N(C)CC(=O)N[C@@H](CCc2ccc(Cl)c(Cl)c2)C(=O)N2C[C@H](OC3CCCC3)C[C@H]2C(=O)NC2(CC(C)(C)C2)C(=O)N1C [PP2651] |  | 147 nM |  |  |  |  |  | Kd [1, 7]: 1.9 nM; NRAS/KRAS (ratio of KD value with respect to GDP-bound NRAS wild-type protein to KD value with respect to KRAS) ([2]; SPR KD ratio NRAS/KRAS, class symbols): AA (a compound having 20 or more is denoted as AA); HRAS/KRAS (ratio of KD value with respect to GDP-bound HRAS wild-type protein to KD value with respect to KRAS) ([3]; SPR KD ratio HRAS/KRAS, class symbols): A (a compound having 10 or more and less than 20 is denoted as A)
6 | CCCO[C@@H]1C[C@H]2C(=O)NC3(CC(C)(C)C3)C(=O)N(C)[C@@H](C3CCCC3)C(=O)N(C)[C@H](C(=O)N(C)C)CC(=O)N(C)[C@H]3CCCCc4ccc(cc4)C[C@@H](C(=O)N(C)CC(=O)N[C@@H](CCc4ccc(Cl)c(Cl)c4)C(=O)N2C1)N1CC/C=C\C[C@@H](C1=O)N(C)C(=O)CN(C)C(=O)[C@H]([C@@H](C)CC)NC3=O [PP3092] | 0.09 nM |  |  | A (a compound having 10 or more and less than 20 is denoted as A) | A (a compound having 10 or more and less than 20 is denoted as A) |  |  | ratio of the KD value with respect to GDP-bound NRAS wild-type protein to the KD value with respect to KRAS [2]: A (a compound having 10 or more and less than 20 is denoted as A); ratio of the KD value with respect to GDP-bound HRAS wild-type protein to the KD value with respect to KRAS [3]: A (a compound having 10 or more and less than 20 is denoted as A); IC50 [4, 5]: 7.4 nM
7 | CCCO[C@H](C)[C@@H]1NC(=O)[C@H](COCC)N(C)C(=O)C[C@@H](C(=O)N(C)CC)N(C)C(=O)[C@H](C2CCCC2)N(C)C(=O)C2(CC(C)(C)C2)NC(=O)[C@@H]2C[C@@H](OCC)CN2C(=O)[C@H](CCc2cc(F)c(C(F)(F)F)c(F)c2)NC(=O)CN(C)C(=O)[C@H](Cc2ccc(C)cc2)N2CC/C=C\C[C@@H](C2=O)N(C)C(=O)[C@@H]2CCCN2C1=O [PP2436] | 1.6 nM | 126 nM |  | A (a compound having 10 or more and less than 20 is denoted as A) | A (a compound having 10 or more and less than 20 is denoted as A) |  |  | 

Second part, led by results:

Row | Kd ([1]; SPR, Single Cycle Kinetics) | IC50 [4] | Kd [1, 6] | SMILES | NRAS/KRAS (ratio of KD value for NRAS to KD value for KRAS) [2] | HRAS/KRAS (ratio of KD value for HRAS to KD value for KRAS) [3] | NRAS/KRAS (ratio of KD value for NRAS to KD value for KRAS) ([2]; KD ratio class) | HRAS/KRAS (ratio of KD value for HRAS to KD value for KRAS) ([3]; KD ratio class) | further results
8 | 0.3 nM | 15.9 nM |  | CCCO[C@H](C)[C@@H]1NC(=O)[C@H](CC(C)C)N(C)C(=O)C[C@@H](C(=O)N(C)CC)N(C)C(=O)[C@H](C2CCCC2)N(C)C(=O)C2(CC(C)(C)C2)NC(=O)[C@@H]2C[C@H](C)CN2C(=O)[C@H](CCc2cc(F)c(C(F)(F)F)c(F)c2)NC(=O)CN(C)C(=O)[C@H](Cc2ccc(C)cc2)N2CC/C=C\C[C@@H](C2=O)N(C)C(=O)CN(C)C1=O [PP2417] | A (a compound having 10 or more and less than 20 is denoted as A) | A (a compound having 10 or more and less than 20 is denoted as A) |  |  | 
9 |  | 5.8 nM | 0.087 nM | CCO[C@@H]1C[C@H]2C(=O)NC3(CCCC3)C(=O)N(C)[C@@H](C3CCCC3)C(=O)N(C)[C@H](C(=O)N3CCOCC3)CC(=O)N(C)[C@@H](CC)C(=O)N[C@@H]([C@@H](C)CC)C(=O)N(C)CC(=O)N(C)[C@H]3CC[C@@H](C)CN(C3=O)[C@@H](Cc3ccc(C(F)(F)F)cc3)C(=O)N(C)CC(=O)N[C@@H](CCc3ccc(C(F)(F)F)c(Cl)c3)C(=O)N2C1 [PP1377] |  |  | B (a compound having 3 or more and less than 10 is denoted as B) | B (a compound having 3 or more and less than 10 is denoted as B) | 
10 |  | 7.9 nM |  | CCCN1C(=O)CN(C)C(=O)CN(C)C(=O)[C@H]([C@@H](C)CC)NC(=O)[C@H](CC(C)C)N(C)C(=O)C[C@@H](C(=O)N2CCOCC2)N(C)C(=O)[C@H](C2CCCC2)N(C)C(=O)C2(CCCC2)NC(=O)[C@@H]2C[C@H](O)CN2C(=O)[C@H](CCc2ccc(C(F)(F)F)c(Cl)c2)NC(=O)CN(C)C(=O)[C@@H]1Cc1ccc(C(F)(F)F)cc1 [PP0240] ([NMeL]I[Sar][Sar][NPrPhe(4-CF3)][Sar][hPhe(3-Cl-4-CF3)][cisHyp][Ac5c][NMeGly(cPent)][NMeD]-Morpholide; lactam N-11) | B (a compound having 3 or more and less than 10 is denoted as B) | C (A compound having a KD ratio of 0.1 or more and less than 3 is denoted as C) |  |  | Kd [1, 7]: 0.035 nM
11 | 0.12 nM | 52.3 nM |  | CCO[C@@H]1C[C@H]2C(=O)NC3(CCC3)C(=O)N(C)[C@@H](C3CCCC3)C(=O)N(C)[C@H](C(=O)N3CCOCC3)CC(=O)N(C)[C@@H](Cc3ccc(C#N)cc3)C(=O)N[C@@H]([C@@H](C)CC)C(=O)N(C)CC(=O)N(C)[C@H]3CCCCCN(C3=O)[C@@H](Cc3ccc(F)cc3)C(=O)N(C)CC(=O)N[C@@H](CCc3cc(F)c(C(F)(F)F)c(F)c3)C(=O)N2C1 [PP1187] | B (a compound having 3 or more and less than 10 is denoted as B) | B (a compound having 3 or more and less than 10 is denoted as B) |  |  | 
12 |  | 53.5 nM | 0.13 nM | CCO[C@@H]1C[C@H]2C(=O)NC3(CCC3)C(=O)N(C)[C@@H](C3CCCC3)C(=O)N(C)[C@H](C(=O)N(C)C)CC(=O)N(C)[C@@H](CC)C(=O)N[C@@H](C(C)C)C(=O)N(C)CC(=O)N(C)[C@H]3C/C=C\CCN(C3=O)[C@@H](Cc3ccc(C(F)(F)F)cc3)C(=O)N(C)CC(=O)N[C@@H](CCc3cc(F)c(C(F)(F)F)c(F)c3)C(=O)N2C1 [PP1270] |  |  | A (a compound having 10 or more and less than 20 is denoted as A) | B (a compound having 3 or more and less than 10 is denoted as B) | 
